Data as given in BindingDB's records for doi:10.1124/mol.107.042622 (The Johns Hopkins University, 2008).

Each molecule was assayed against DNA-(apurinic or apyrimidinic site) endonuclease (Homo sapiens, UniProt P27695) (assay: High-Throughput Screening and IC50 Determinations). Conditions: pH 7.5; 22 °C.
Description: The screening assay was performed using 384-well microtiter plate first spotted with test compounds. Then Ape1 in reaction buffer was added to each well. The reaction was initiated through the addition of substrate. After incubation, the final fluorescence was measured using a FLUOstar Optima plate reader (BMG Labtech GmbH, Offenburg, Germany) at excitation and emission wavelengths of 485 and 520 nm, respectively. IC50 analyses were carried out on the best hits by first plating 10-fold dilutions of each inhibitor onto 384-well plates. Using the initial rate values, percentage activity was calculated for each sample relative to a negative (DMSO only) control. The data were fitted to a sigmoidal dose-response model using Prism software (GraphPad Software, San Diego, CA).

DNA-(apurinic or apyrimidinic site) endonuclease, sequence (P27695 whole entry): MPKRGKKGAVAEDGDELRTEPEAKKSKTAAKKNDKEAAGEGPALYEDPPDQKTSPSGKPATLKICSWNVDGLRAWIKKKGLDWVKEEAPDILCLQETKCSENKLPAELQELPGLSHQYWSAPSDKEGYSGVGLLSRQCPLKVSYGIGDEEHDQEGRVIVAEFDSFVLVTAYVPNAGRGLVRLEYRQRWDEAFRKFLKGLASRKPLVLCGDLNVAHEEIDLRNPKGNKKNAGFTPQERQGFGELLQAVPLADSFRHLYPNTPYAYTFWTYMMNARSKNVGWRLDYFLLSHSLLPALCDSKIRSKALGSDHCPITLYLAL

Row | SMILES | IC50 [nM] | Ki [nM]
1 | O=C(Nc1cc[c]([Sb](=[O])([OH])[OH])cc1)c1ccccc1 [N-{4-[dihydroxy(oxo)--stibanyl]phenyl}benzamide] | 300 | 
2 | O=C(O)/C=C/c1ccc[c]([Sb](=[O])([OH])[OH])c1 [(2E)-3-{3-[dihydroxy(oxo)--stibanyl]phenyl}prop-2-enoic acid] | 200 | 
3 | O=C(O)c1cc[c]([Sb](=[O])([OH])[OH])cc1[N+](=O)[O-] [4-[dihydroxy(oxo)--stibanyl]-2-nitrobenzoic acid] | 4 | 19
4 | CCOC(=O)CCCc1cc[c]([Sb](=[O])([OH])[OH])cc1 [ethyl 4-{4-[dihydroxy(oxo)--stibanyl]phenyl}butanoate] | 17 | 36
